These compounds were tested on GABAA receptor (native mixed population in iCell Neurons) (assay: automated patch clamp).
Type: cell-based, Homo sapiens
`COc1ccc(-n2nc3c4ccc(OC)cc4[nH]cc-3c2=O)cc1` [CW-04-020] showed an EC50 of 0.23 ± 0.07 µM.
For `C#Cc1ccc2c(c1)C(c1ccccn1)=NCc1c(C(=O)OCC)ncn1-2` [HZ166], the EC50 was 1.56 ± 0.83 µM.
In the case of `CN1C(=O)CN=C(c2ccccc2)c2cc(Cl)ccc21` [diazepam], the EC50 is reported as 0.42 ± 0.12 µM.
